Here are results for one compound from paper PMC7956643, “Synthesis of Novel Pyrido[1,2-c]pyrimidine Derivatives with 6-Fluoro-3-(4-piperidynyl)-1,2-benzisoxazole Moiety as Potential SSRI and 5-HT1A Receptor Ligands” (International Journal of Molecular Sciences, 2021).

Experiment [1] deals with T1, 5-HT1A receptor (Mus musculus, UniProt Q64264).
T1 construct: from tissue; host or cells: whole animal, male CD-1 mice
T1 sequence (Q64264 1-421): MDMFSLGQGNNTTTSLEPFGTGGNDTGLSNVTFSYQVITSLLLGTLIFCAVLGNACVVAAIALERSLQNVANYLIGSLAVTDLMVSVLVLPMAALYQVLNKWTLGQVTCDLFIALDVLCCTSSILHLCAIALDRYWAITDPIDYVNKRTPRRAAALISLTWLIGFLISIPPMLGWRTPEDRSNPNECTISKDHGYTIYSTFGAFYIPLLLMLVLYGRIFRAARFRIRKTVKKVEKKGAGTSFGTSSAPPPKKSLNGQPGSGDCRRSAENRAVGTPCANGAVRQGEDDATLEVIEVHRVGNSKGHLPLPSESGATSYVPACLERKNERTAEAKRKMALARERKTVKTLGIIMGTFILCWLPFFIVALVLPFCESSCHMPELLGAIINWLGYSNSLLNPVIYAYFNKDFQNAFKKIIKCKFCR
Briefly: Effect of WAY-100635 on the hypothermia induced by tested compounds. Particulars: mice. It counts as in vivo, CD-1 mice. As for the experimental part:
(§1) The experiments were performed on male CD-1 mice (23–40 g). The animals were kept at room temperature (21 ± 2 °C) on a natural day-night cycle (March–October) and housed under standard laboratory conditions. They had free access to food and tap water before the experiment. Each experimental group consisted of 6–8 animals/dose. All the animals were used only once. 8-Hydroxy-2-(di-n-propylamino)tetralin hydro-bromide (8-OH-DPAT, Research Biochemical Inc.) was used as aqueous solution. […] Vehicle group was administered as 10% aqueous solution of dimethyl sulphoxide (DMSO). 8-OH-DPAT was injected subcutaneously (sc); 6a and 7g were given intraperitoneally (ip) in a volume of 10 mL/kg/mice. The obtained data were analyzed by Dunnett’s test (one drug administration) or by the Newman–Keuls test (two drugs administrations). Forced swim test: the obtained data was evaluated by one-way analysis of variance (ANOVA) followed by the Dunnett’s multiple comparisons test: p < 0.05 was considered significant.
(§2) The results were expressed as a change in body temperature (Δt) with respect to the basal body temperature, as measured at the beginning of the experiment.

Experiment [2] concerns the target T1, 5-HT1A receptor. The experiment in a line: Body temperature in mice (induced hypothermia). Type of experiment: in vivo, CD-1 mice. As for the experimental part: as §1, §2

The structures appear in SMILES notation. Entries after “also recorded” stand apart in the source; their conditions may differ. Marks after values point to notes of the source that are not given here.

For the compound `O=c1c(-c2ccccc2)c2ccccn2c(=O)n1CCCCN1CCC(c2noc3cc(F)ccc23)CC1` [Compound 6a, 4-Phenyl-2-{4-[4-(6-fluoro-1,2-benzoxazol-3-yl)-1-piperidyl]butyl}-pyrido[1,2-c]pyrimidine-1,3-dione], the “Δt ± SEM, body temperature” value at 5-HT1A receptor [1] (WAY-100635 0.1 mg/kg sc 15 min before compound 0.6 mg/kg, 30 min) is −0.5 ± 0.2 ^b,d °C; on 5-HT1A receptor [1] (WAY-100635 0.1 mg/kg sc 15 min before compound 0.6 mg/kg, 60 min), −0.4 ± 0.2 ^a,e °C; at 5-HT1A receptor [1] (vehicle + compound 0.6 mg/kg, 30 min) it was −1.0 ± 0.2 ^c °C; on 5-HT1A receptor [1] (vehicle + compound 0.6 mg/kg, 60 min), −1.2 ± 0.1 ^c °C; on 5-HT1A receptor [2] (mice, 0.6 mg/kg ip, 30 min), −1.0 ± 0.2 ^b °C; at 5-HT1A receptor [2] (mice, 0.6 mg/kg ip, 60 min), −1.2 ± 0.1 ^b °C. The “Δt ± SEM, body temperature” value on 5-HT1A receptor [2] (mice, 0.6 mg/kg ip, 90 min) was −0.9 ± 0.1 ^a °C; at 5-HT1A receptor [2] (mice, 0.6 mg/kg ip, 120 min), −0.8 ± 0.2 ^a °C; at 5-HT1A receptor [2] (mice, 1.25 mg/kg ip, 30 min), −1.7 ± 0.3 ^b °C; at 5-HT1A receptor [2] (mice, 1.25 mg/kg ip, 60 min), −1.7 ± 0.3 ^b °C; on 5-HT1A receptor [2] (mice, 1.25 mg/kg ip, 90 min), −1.6 ± 0.2 ^b °C; at 5-HT1A receptor [2] (mice, 1.25 mg/kg ip, 120 min) it was −1.6 ± 0.3 ^b °C. Further, the “Δt ± SEM, body temperature” value was −1.6 ± 0.2 ^b °C at 5-HT1A receptor [2] (mice, 2.5 mg/kg ip, 30 min); −2.5 ± 0.3 ^b °C at 5-HT1A receptor [2] (mice, 2.5 mg/kg ip, 60 min); −2.4 ± 0.3 ^b °C on 5-HT1A receptor [2] (mice, 2.5 mg/kg ip, 90 min); −2.0 ± 0.2 ^b °C at 5-HT1A receptor [2] (mice, 2.5 mg/kg ip, 120 min); −2.0 ± 0.2 ^b °C at 5-HT1A receptor [2] (mice, 5 mg/kg ip, 30 min); −3.2 ± 0.5 ^b °C on 5-HT1A receptor [2] (mice, 5 mg/kg ip, 60 min). Moreover, the “Δt ± SEM, body temperature” value is −3.1 ± 0.5 ^b °C on 5-HT1A receptor [2] (mice, 5 mg/kg ip, 90 min) and −2.8 ± 0.5 ^b °C on 5-HT1A receptor [2] (mice, 5 mg/kg ip, 120 min). On 5-HT1A receptor [1] (WAY-100635 0.1 mg/kg, compound 0.6 mg/kg), the “Hypothermia induced by compound diminished by WAY-100635” value amounted to 50%. The “Functional 5-HT1A receptor activity profile” value at 5-HT1A receptor [2] (concluded from induced hypothermia test in mice) was “presynaptic agonist of the 5-HT1A receptor; also recorded: presynaptic 5-HT1A agonistic activity”. Besides, the “Induction of hypothermia in mice” value on 5-HT1A receptor [2] (mice) is given as “induced hypothermia”.
